From patent publication US5512573A, “Use of phthaloylhydrazide derivatives as anti-hypoxic and defensive agents” (priority 1993, dated 1996)
Structures can show the parent of a compound that is named as a salt.

Columns and labels:
[1] = Summary of experiments on phthaloylhydrazide derivatives; format: in vivo; conditions: for pharmacological activity, anti-hypoxic and defensive action: doses of 10 to 300 mg/kg
[2] = tested on: brain ischemia (carotid tying) in mice; experiment: Example 4: carotid tying and release in mice; format: in vivo; conditions: control mortality 50%
Method: We performed experiments on 50 mice of the pyramid by tying the carotid under light anesthesia. After 7 minutes, we released the tie and restored the blood circulation in the ischemic area.

[3] = tested on: myocardial ischemia in rats; experiment: Example 3: myocardial ischemia with restored circulation in rats; format: in vivo
Method: Experiments were performed on 60 previously prepared rats. Thirty days before the start of the main experiment, a part of the coronary artery was tied off.
Next, after having supplied light anesthesia, we created by means of the obstruction of the vessel a massive hearth of myocardial ischemia.
We administered the sodium salt intravenously in doses of 30, 100, 200 and 250 mg per kilogram of body weight, immediately after having released the tie. In the control group, the rats were administered a physiological solution, while the test group was given the antioxidant Dibunolo (20% oily solution in a dose of 30 mg/kg).

Sprague-Dawley rats = conditions: use to decrease serum cholesterol levels; cited from earlier work
[4] = tested on: leukocytes in ischemic tissue; surviving animals
hypoxia in mice = experiment: Example 1: resistance of mice to hypoxia (altitude of 10,400 meters); format: in vivo; conditions: control 41±2.5, sodium salt at 60 to 80 mg/kg
Method: We assessed the pharmacological activity on the basis of the resistance of the animals to hypoxia. […] We administered the drug intravenously in doses of 10 to 300 mg, in 0.1 ml of physiological solution. In some cases, because of poor solubility, we injected the derivatives in the form of suspensions. The control animals received 0.1 ml of physiological solution.

leukocytes = conditions: in vivo
[5] = tested on: ethane and pentane contents of the air inhaled by the animals; conditions: change in ethane and pentane contents
[6] = morphological analysis, test group

4,5-amino-2,3- dihydrophthalazine-1,2 dione [4,5-aminophthaloylhydrazide]
pharmacological activity, anti-hypoxic and defensive action [1]: possess a pronounced pharmacological activity

4-methyl-4,5-diamino-2,3 dihydrophthalazine-1,2 dione
pharmacological activity, anti-hypoxic and defensive action [1]: possess a pronounced pharmacological activity

Nc1ccc2c(=O)[nH][nH]c(=O)c2c1 [4-aminophthaloylhydrazide]
therapeutic effects ([1]; in vivo): major therapeutic effects

Cc1cc(C(C)(C)C)c(O)c(C(C)(C)C)c1 [Dibunolo, reference compound]
prevention of mortality [2]: not entirely prevented
survival rate ([3]; Dibunolo 20% oily solution, 30 mg/kg, p>0.05): tendency toward rising survival rates of the animals, but the results obtained were not reliable

O=c1[nH][nH]c(=O)c2ccccc12 [Phthaloylhydrazide, 2,3 dihydrophthalazine-1,4 dione]
pharmacological activity, anti-hypoxic and defensive action [1]: possess a pronounced pharmacological activity
toxicity (Sprague-Dawley rats): certain signs of toxicity

N[C@@H](Cc1c[nH]cn1)C(=O)O [histidine, reference compound]
prevention of mortality [2]: not entirely prevented

Nc1cccc2c(=O)[nH][nH]c(=O)c12 [sodium salt of 5-aminophthaloylhydrazide, sodium salt of 5-amino-2,3-dihydrophthalazine-1,2 dione]
anti-hypoxic activity vs antioxidants (Dibunolo, histidine, Organeia, etc.) (hypoxia; 60 to 80 mg): exceeds that of antioxidants used thus far in medical practice
anti-hypoxic effect on further dose increase (hypoxia; beyond 100 mg/kg): the effect does not basically increase
percentage of surviving animals ([4]; experimental group, intravenous, p<0.01): 80%
increase of leukocyte levels in the blood ([4]; one time i.v. 150 to 250 mg/kg): 2.5 times
previously penetrated leukocytes eliminated ([4]; one time i.v. 150 to 250 mg/kg, after 6 hours): 75%
life span of the animals (hypoxia in mice): 222 ± 45 s
adhesion capacity of the leukocytes (leukocytes): drop in the adhesion capacity of the leukocytes
signs of a therapeutic effect ([3]; 30 mg/kg i.v.): clear signs of a therapeutic effect
prevention of death ([3]; 30 mg/kg i.v., p>0.05): did not prevent the death of the animals
number of surviving animals ([3]; 100 mg/kg and beyond, i.v., p<0.01-0.001): increase in the number of surviving animals
damaged area of myocardium [3, 6]: the damaged area could not be perceived visually
necrotic hearths in myocardium [3, 6]: The tiny necrotic hearths were few and diffused
antioxidant action in vivo [5]: antioxidant action in vivo

dimethyldiaminophthaloylhydrazide
life span of the animals (hypoxia in mice): 89 ± 12 s
